The target in test [1] is T1, AuroraA-TPX2 (Homo sapiens, UniProt O14965).
T1 construct: 20 µL of AuroraA-TPX2 KD GST; GST
T1 sequence (O14965 133-383 limits assumed): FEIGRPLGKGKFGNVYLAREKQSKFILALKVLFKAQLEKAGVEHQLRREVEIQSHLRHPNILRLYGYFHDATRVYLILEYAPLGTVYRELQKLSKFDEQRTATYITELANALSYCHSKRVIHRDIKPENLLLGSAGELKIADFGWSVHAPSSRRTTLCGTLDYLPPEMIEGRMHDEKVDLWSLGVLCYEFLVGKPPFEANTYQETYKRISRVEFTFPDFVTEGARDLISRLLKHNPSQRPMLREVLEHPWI
T1 sequence (Q9ULW0 1-43 partner limits assumed): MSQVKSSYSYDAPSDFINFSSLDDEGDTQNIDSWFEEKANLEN
Kind of test: AuroraA-TPX2 Homogeneous Time Resolved Fluorescent (HTRF) kinase assay. Type of test: biochemical. On the procedure: AuroraA-TPX2-Homogeneous Time Resolved Fluorescent (HTRF) Kinase Assay:
The Aurora-A HTRF assay begins with Aurora-A in the presence of ATP phosphorylating the biotinylated peptide PLK. The reaction incubates for about 120 min. Detection reagents are added to quench the reaction. These agents stop the reaction by diluting out the enzyme and chelating the metals due to the presence of EDTA. After addition, the assay is incubated overnight to allow the detection reagents to equilibrate.
The final concentration of PLK is about 1 µM. […] Buffer conditions are as follows: 60mM HEPES pH 7.5, 25mM NaCl, 10mM MgCl, 2mM DTT, 0.05% BSA.
The assay is quenched and stopped with 160 µL, of detection reagent. Detection reagents are as follows: Buffer made of 50mM Tris, pH 7.5, 100mM NaCl, 3mM EDTA, 0.05% BSA, 0.1% Tween20. Added to this buffer prior to reading is Steptavidin allophycocyanin (SA-APC) at a final conc in the assay of 0.0005 mg/mL, and europilated anti-phosphoPLK Ab (Eu-anti-PLK) at a final conc of 0.02 nM.
The assay plate is read in either a Discovery or a RubyStar. The eu-anti-PLK is excited at 320 nm and emits at 615 nm to excite the SA-APC which in turn emits at 655 nm.
On the technique in general: In TR-FRET formats the signal depends on donor and acceptor labels being close together.

Test [2] concerns the target T2, AuroraB (Homo sapiens, UniProt Q96GD4).
T2 construct: 20 µL of AuroraB FL His; His
Kind of test: AuroraB Homogeneous Time Resolved Fluorescent (HTRF) kinase assay. It is filed as biochemical. As to the method: AuroraB-Homogeneous Time Resolved Fluorescent (HTRF) Kinase Assay:
The AuroraB HTRF assay begins with AuroraB in the presence of ATP phosphorylating the biotinylated peptide Histone H3. The reaction incubates for about 90 min. the reaction is quentched by addition of detection reagents, which stop the reaction by diluting out the enzyme and chelating the metals due to the presence of EDTA. After addition, the assay is incubated for about 60 min to allow detection reagents to equilibrate.
The AuroraB HTRF assay comprises 1 µL of compound in 100% DMSO, 20 µL of ATP and biotinylated Histone H3, and 20 µL of AuroraB FL His for a final volume of 41 µL. The final concentration of Histone H3 is 0.1 µM. The final concentration of ATP is 23 µM (Km(app) = 23 µM+/-2.6) and the final concentration of AuroraB is 400 pM. Buffer conditions are as follows: 50mM HEPES pH 7.5, 5mM NaCl, 0.5mM MgCl, 0.5mM MnCl, 2mM DTT, 0.05% BSA.
The assay is quenched and stopped with 160 µL of detection reagent. Detection reagents are as follows: Buffer made of 50mM Tris, pH 7.5, 100mM NaCl, 3mM EDTA, 0.05% BSA, 0.1% Tween20. Added to this buffer prior to reading is Steptavidin allophycocyanin (SA-APC) at a final conc in the assay of 0.001 mg/mL, and europilated anti-phosphoHistoneH3 Ab (Eu-anti-HisH3) at a final conc of 0.064 nM.
The assay plate is read in either a Discovery or a RubyStar. The eu-anti-HisH3 is excited at 320 nm and emits at 615 nm to excite the SA-APC which in turn emits at 655 nm. The ratio of SA-APC at 655 nm (excited due to close proximity to the Eu-anti-HisH3 because of phosphorylation of the peptide) to free Eu-anti-HisH3 at 615 nm will give substrate phosphorylation.

The mark [3] stands for this setting: average, given as numbers, unit inferred, read-out: AurA/TP X2_ IC50_IP (Avg).
The mark [4] stands for this setting: average, given as numbers, unit inferred, read-out: AurB_ _IC50_IP (Avg).
The mark [5] stands for this setting: average, given as class symbols, read-out: AurA/TP X2_ IC50_IP (Avg).
The mark [6] stands for this setting: average, given as class symbols, read-out: AurB_ _IC50_IP (Avg).
The mark [7] stands for this setting: read-out: average activity in the Aurora kinase A HTRF assay.
Setting [8] is: read-out: average activity in the Aurora kinase B HTRF assay.

Where two headings read alike, the source gives them in different places.

T2 sequence (Q96GD4 whole entry): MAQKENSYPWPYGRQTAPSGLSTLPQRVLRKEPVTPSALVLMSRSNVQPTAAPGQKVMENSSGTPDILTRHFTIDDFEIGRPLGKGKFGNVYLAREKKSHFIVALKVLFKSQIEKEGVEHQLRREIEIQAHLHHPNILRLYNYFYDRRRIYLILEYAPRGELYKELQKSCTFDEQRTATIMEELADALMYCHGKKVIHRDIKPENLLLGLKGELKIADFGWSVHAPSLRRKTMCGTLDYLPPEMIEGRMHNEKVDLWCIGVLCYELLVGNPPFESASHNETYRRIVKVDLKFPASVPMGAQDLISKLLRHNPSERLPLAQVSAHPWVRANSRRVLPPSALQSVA

For `Cc1cccc(-c2nnc(Nc3ccc(Oc4ncccc4-c4ccnc(NCCCN5CCN(C)CC5)n4)cc3)c3ccccc23)n1` [compound 275, N-(4-((3-(2-((3-(4-methyl-1-piperazinyl)propyl)amino)-4-pyrimidinyl)-2-pyridinyl)oxy)phenyl)-4-(6-methyl-2-pyridinyl)-1-phthalazinamine], the IC50 in test [1] (setting [3]) worked out at 0.0949 µM; in test [2] (setting [4]), 0.0134 µM.

With `Nc1nccc(-c2cccnc2Oc2ccc(Nc3nnc(N4CCCC(CO)C4)c4ccccc34)cc2)n1` (stereo not shown) [compound 352, (1-(4-((4-((3-(2-amino-4-pyrimidinyl)-2-pyridinyl)oxy)phenyl)amino)-1-phthalazinyl)-3-piperidinyl)methanol], the IC50 in test [1] (setting [5]) and in test [2] (setting [6]) was at most 0.1 µM throughout.

For the compound `CN1CCN(CCCNc2nccc(-c3cccnc3Oc3ccc(Nc4nnc(-c5ccccn5)c5ccccc45)cc3)n2)CC1` [compound 323, N-(4-((3-(2-((3-(4-methyl-1-piperazinyl)propyl)amino)-4-pyrimidinyl)-2-pyridinyl)oxy)phenyl)-4-(2-pyridinyl)-1-phthalazinamine], the values for the IC50 in test [1] (setting [5]) and in test [2] (setting [6]) were 0.1 to 0.5 µM and at most 0.1 µM, respectively.

In the case of `CC(=O)OCc1cccc(-c2nnc(Nc3ccc(Oc4ncccc4-c4ccnc(N)n4)cc3)c3ccccc23)n1` [compound 296, (6-(4-((4-((3-(2-amino-4-pyrimidinyl)-2-pyridinyl)oxy)phenyl)amino)-1-phthalazinyl)-2-pyridinyl)methyl acetate], the IC50 in test [1] (setting [5]) and in test [2] (setting [6]) was at most 0.1 µM throughout.

`Nc1nccc(-c2ccccc2Oc2ccc(Nc3nnc(-c4ccccc4)c4ccccc34)cc2)n1` [compound 254, N-(4-((2-(2-amino-4-pyrimidinyl)phenyl)oxy)phenyl)-4-phenyl-1-phthalazinamine]: the IC50 in test [1] (setting [5]) and in test [2] (setting [6]) was at most 0.1 µM throughout.

For `c1ccc(-c2nnc(Nc3cnc(Oc4ccccc4-c4ccncc4)nc3)c3ccccc23)cc1` [Example 468, 4-Phenyl-N-(2-(2-(pyridin-4-yl)phenoxy)pyrimidin-5-yl)phthalazin-1-amine], the IC50 in test [1] (setting [7]) and in test [2] (setting [8]) was at most 0.1 µM throughout.

On to `Cc1ccnc(-c2nnc(Nc3ccc(Oc4ncccc4-c4ccnc(NCCCN5CCOCC5)n4)cc3)c3ccccc23)c1` [compound 412, 4-(4-methyl-2-pyridinyl)-N-(4-((3-(2-((3-(4-morpholinyl)propyl)amino)-4-pyrimidinyl)-2-pyridinyl)oxy)phenyl)-1-phthalazinamine], for which the IC50 is 0.1 to 0.5 µM in test [1] (setting [5]) and at most 0.1 µM in test [2] (setting [6]).

As for `Nc1nccc(-c2cccnc2Oc2ccc(Nc3nnc(-c4cccc(CCCOP(=O)(O)O)c4)c4ccccc34)cc2)n1` [compound 362, 3-(3-(4-((4-((3-(2-amino-4-pyrimidinyl)-2-pyridinyl)oxy)phenyl)amino)-1-phthalazinyl)phenyl)propyl dihydrogen phosphate], the IC50 in test [1] (setting [5]) and in test [2] (setting [6]) was at most 0.1 µM in each case.

As for `COC(=O)c1cc(-c2ccccc2)nnc1Nc1ccc(Oc2ncccc2-c2ccnc(N)n2)cc1` [Example 470, methyl 3-((4-((3-(2-amino-4-pyrimidinyl)-2-pyridinyl)oxy)phenyl)amino)-6-phenyl-4-pyridazinecarboxylate], the IC50 in test [1] (setting [7]) and in test [2] (setting [8]) was at most 1 µM throughout.

For `COc1cccc(OC)c1-c1nnc(Nc2ccc(Oc3ncccc3-c3ccnc(N)n3)cc2)c2ccccc12` [compound 253, N-(4-((3-(2-amino-4-pyrimidinyl)-2-pyridinyl)oxy)phenyl)-4-(2,6-bis(methyloxy)phenyl)-1-phthalazinamine], the IC50 in test [1] (setting [3]) came out at 2.32 µM; in test [2] (setting [4]), 0.472 µM.

For the compound `Nc1nccc(-c2cccnc2Oc2ccc(Nc3ncc(-c4ccccc4)c4ccccc34)cn2)n1` [compound 266, N-(6-((3-(2-amino-4-pyrimidinyl)-2-pyridinyl)oxy)-3-pyridinyl)-4-phenyl-1-isoquinolinamine], the IC50 in test [1] (setting [5]) and in test [2] (setting [6]) was at most 0.1 µM in each case.

For the compound `COc1ccc(F)c(-c2nnc(Nc3ccc(Oc4ncccc4-c4ccnc(N)n4)cc3)c3ccccc23)c1` [compound 372, N-(4-((3-(2-amino-4-pyrimidinyl)-2-pyridinyl)oxy)phenyl)-4-(2-fluoro-5-(methyloxy)phenyl)-1-phthalazinamine], the IC50 in test [1] (setting [5]) and in test [2] (setting [6]) was at most 0.1 µM each time.

As to `c1ccc(-c2nnc(Nc3ccc(Oc4ncccc4-c4ccnc5c4CCCN5)cc3)c3ccccc23)cc1` [compound 283, 4-phenyl-N-(4-((3-(5,6,7,8-tetrahydro-1,8-naphthyridin-4-yl)-2-pyridinyl)oxy)phenyl)-1-phthalazinamine], the IC50 is 0.5 to 2.5 µM in test [1] (setting [5]) and 0.1 to 0.5 µM in test [2] (setting [6]).

With “N-(4-((3-(2-amino-4-pyrimidinyl)-2-pyridinyl)oxy)phenyl)-4-(6-methyl-2-pyridinyl)-1-phthalazinamine [compound 271]”, the IC50 in test [1] (setting [3]) was 0.0243 µM; in test [2] (setting [4]), 0.001 µM.

On to `Nc1nccc(-c2cccnc2Oc2ccc(Nc3nnc(-c4ccccc4CO)c4ccccc34)cn2)n1` [compound 385, (2-(4-((6-((3-(2-amino-4-pyrimidinyl)-2-pyridinyl)oxy)-3-pyridinyl)amino)-1-phthalazinyl)phenyl)methanol], for which the IC50 in test [1] (setting [5]) is 0.1 to 0.5 µM; in test [2] (setting [6]) it was at most 0.1 µM.

In the case of `Nc1nccc(-c2cccnc2Oc2ccc(Nc3nnc(-c4ccccc4OP(=O)(O)O)c4ccccc34)cc2)n1` [compound 368, 2-(4-((4-((3-(2-amino-4-pyrimidinyl)-2-pyridinyl)oxy)phenyl)amino)-1-phthalazinyl)phenyl dihydrogen phosphate], the IC50 in test [1] (setting [5]) and in test [2] (setting [6]) was 0.5 to 2.5 µM throughout.

Consider `Nc1nccc(-c2cccnc2Oc2ccc(Nc3nnc(-c4cccc(CO)n4)c4ccccc34)cc2)n1` [compound 297, (6-(4-((4-((3-(2-amino-4-pyrimidinyl)-2-pyridinyl)oxy)phenyl)amino)-1-phthalazinyl)-2-pyridinyl)methanol], for which the IC50 in test [1] (setting [5]) and in test [2] (setting [6]) was at most 0.1 µM each time.

As for `CN(C)CCCOc1cccc(-c2nnc(Nc3ccc(Oc4ncccc4-c4ccnc(N)n4)cc3)c3ccccc23)c1` [compound 374, N-(4-((3-(2-amino-4-pyrimidinyl)-2-pyridinyl)oxy)phenyl)-4-(3-((3-(dimethylamino)propyl)oxy)phenyl)-1-phthalazinamine], the IC50 in test [1] (setting [5]) and in test [2] (setting [6]) was at most 0.1 µM in each case.

Turning to `C[C@H](O)c1ccc(-c2nnc(Nc3ccc(Oc4ncccc4-c4ccnc(N)n4)cc3)c3ccccc23)cc1` [compound 257, (1S)-1-(4-(4-((4-((3-(2-amino-4-pyrimidinyl)-2-pyridinyl)oxy)phenyl)amino)-1-phthalazinyl)phenyl)ethanol], the IC50 in test [1] (setting [5]) and in test [2] (setting [6]) was at most 0.1 µM in each case.

In the case of `COc1cccc(-c2nnc(Nc3ccc(Oc4ncccc4-c4ccnc(N)n4)cc3)c3ccccc23)n1` [compound 292, N-(4-((3-(2-amino-4-pyrimidinyl)-2-pyridinyl)oxy)phenyl)-4-(6-(methyloxy)-2-pyridinyl)-1-phthalazinamine], the IC50 in test [1] (setting [5]) and in test [2] (setting [6]) was at most 0.1 µM each time.

Values taken from patent EP1984353B1, “AURORA KINASE MODULATORS AND METHOD OF USE” (Amgen, Inc, priority 2006, dated 2007).
